Results as given in paper PMC4536990, “Efficacy of the antimicrobial peptide TP4 against Helicobacter pylori infection: in vitro membrane perturbation via micellization and in vivo suppression of host immune responses in a mouse model” (Oncotarget, 2015).
Where a SMILES comes first, the peptide text is derived from it.

Key:
[1] = system: H. pylori; format: cell-based, Helicobacter pylori; conditions: 24 h
Description: Frozen cultures were streaked onto BHI agar with 10% sheep blood, and incubated for 24 hr under microaerophilic conditions. H. pylori cells undergoing exponential growth were suspended in sterile phosphate-buffered saline (PBS), and adjusted to 0.05 OD using BHI broth; the resulting inoculum was dispensed onto a microtitre plate. Peptide TP4 was prepared at various concentrations (0.04 to 50 μg mL^−1) using PBS. Antibiotic resistant clinical isolate CI-HC-028 and three reference strains were used for susceptibility testing. All plates were incubated under microaerophilic conditions at 37°C overnight. The MIC was defined as the lowest concentration of the drug at which there was no visible growth. For quality control and comparative analyses, we examined the susceptibility of all four H. pylori strains to the antibiotics amoxicillin, clarithromycin, and metronidazole (Sigma Chemical Co., St. Louis, MO).

[2] = system: C3H/HeN mice; assay: Acute oral toxicity; format: in vivo; conditions: single oral dose 125 mg/kg, n=6, observed 24 hours
Description: Oral toxicity: Acute oral toxicity was assessed in C3H/HeN mice with 6 animals per group, by single oral administration of TP4 (125 mg/kg). […] The mortality rate and clinical signs were recorded. Sub-acute oral toxicity was assessed by administering 600 μg dose/day for 14 days. During dose administration, the animals were observed every day for any signs of toxicity. After the treatment period, the animals were kept under observation for 14 days. The morbidity, mortality, and other clinical signs were recorded and assessed. Dermal Toxicity was assessed by topical application of TP4 at 10 times the effective dose to skin at the dorsal side of mice. After administration, the animals were kept under observation for a minimum of 48 h. Clinical signs were noted if the animals were in the morbid stage or presented with any abnormalities. Eye irritation test in New Zealand white rabbits: Healthy young adult rabbits were used in the experiment. Eyes were treated with TP4, PBS (vehicle control), or 0.1% SDS (positive control). A repeated dose of 1 mg/kg was administered every day for 7 days. During the treatment period, the eyes were examined on days 1, 3, 5, and 7, and allowed to recover until day 14. Clinical signs were recorded during the test period, and grades were assigned for ocular reactions observed during each examination. […]

[3] = system: C3H/HeN mice; assay: Sub-acute oral toxicity; format: in vivo; conditions: three-fold therapeutic dose (600 μg dose/day) orally for 14 days, observed days 1 to 28, n=6
Description: Sub-acute oral toxicity: Three-fold therapeutic doses were orally administered to mice for 14 days.
Oral toxicity: Acute oral toxicity was assessed in C3H/HeN mice with 6 animals per group, by single oral administration of TP4 (125 mg/kg). After dose administration, the animals were kept under observation for a minimum of 48 hr. The mortality rate and clinical signs were recorded. Sub-acute oral toxicity was assessed by administering 600 μg dose/day for 14 days. During dose administration, the animals were observed every day for any signs of toxicity. After the treatment period, the animals were kept under observation for 14 days. The morbidity, mortality, and other clinical signs were recorded and assessed. Dermal Toxicity was assessed by topical application of TP4 at 10 times the effective dose to skin at the dorsal side of mice. After administration, the animals were kept under observation for a minimum of 48 h. Clinical signs were noted if the animals were in the morbid stage or presented with any abnormalities. Eye irritation test in New Zealand white rabbits: Healthy young adult rabbits were used in the experiment. Eyes were treated with TP4, PBS (vehicle control), or 0.1% SDS (positive control). […] Clinical signs were recorded during the test period, and grades were assigned for ocular reactions observed during each examination. […]

[4] = system: C3H/HeN mice; assay: Dermal toxicity; format: in vivo
Description: (§1) Figure 11 TP4 toxicity safety evaluations in New Zealand albino rabbits and C3H/HeN mice (A) Eye irritation test: Ocular appearances of controls, and rabbits treated with TP4 or SDS for 7 days. […] (B) Dermal toxicity: appearances of the skin of mice treated with TP4 at 48 hr post-exposure.
(§2) Oral toxicity: Acute oral toxicity was assessed in C3H/HeN mice with 6 animals per group, by single oral administration of TP4 (125 mg/kg). After dose administration, the animals were kept under observation for a minimum of 48 hr. The mortality rate and clinical signs were recorded. Sub-acute oral toxicity was assessed by administering 600 μg dose/day for 14 days. During dose administration, the animals were observed every day for any signs of toxicity. After the treatment period, the animals were kept under observation for 14 days. The morbidity, mortality, and other clinical signs were recorded and assessed. Dermal Toxicity was assessed by topical application of TP4 at 10 times the effective dose to skin at the dorsal side of mice. After administration, the animals were kept under observation for a minimum of 48 h. Clinical signs were noted if the animals were in the morbid stage or presented with any abnormalities. Eye irritation test in New Zealand white rabbits: Healthy young adult rabbits were used in the experiment. Eyes were treated with TP4, PBS (vehicle control), or 0.1% SDS (positive control). A repeated dose of 1 mg/kg was administered every day for 7 days. During the treatment period, the eyes were examined on days 1, 3, 5, and 7, and allowed to recover until day 14. Clinical signs were recorded during the test period, and grades were assigned for ocular reactions observed during each examination. All procedures, care, and handling of rabbits were approved by the laboratory animal ethics committee of National Taiwan Ocean University.

[5] = system: New Zealand white rabbits; assay: Eye irritation test in rabbits (OECD 405); format: in vivo; conditions: for Abnormality iris grade / Chemosis grade / Conjunctivae Redness grade / Corneal opacity grade: OECD 405 grading
Description: as §1, §2

[6] = cited from earlier work
From the text: (§3) A more complete understanding of how these short amphipathic cationic AMPs bring about bacterial cell death and host immunomodulation is needed for further optimization and development for clinical applications.

[7] = system: human and mouse cell lines; conditions: cited from earlier work
From the text: as §3

For `CC[C@H](C)[C@H](NC(=O)[C@H](C)NC(=O)[C@H](CCCCN)NC(=O)CNC(=O)[C@H](C)NC(=O)[C@H](CO)NC(=O)[C@H](Cc1ccccc1)NC(=O)[C@H](CC(C)C)NC(=O)CNC(=O)CNC(=O)[C@@H](NC(=O)[C@@H](NC(=O)[C@H](Cc1c[nH]cn1)NC(=O)[C@H](Cc1c[nH]cn1)NC(=O)[C@@H](NC(=O)[C@@H](N)Cc1ccccc1)[C@@H](C)CC)[C@@H](C)CC)[C@@H](C)CC)C(=O)N[C@@H](Cc1c[nH]cn1)C(=O)N[C@@H](CCCNC(=N)N)C(=O)N[C@@H](CC(C)C)C(=O)N[C@H](C(=O)N[C@@H](CCCNC(=N)N)C(=O)N[C@@H](CCCNC(=N)N)C(=O)N[C@@H](CCCNC(=N)N)C(=O)N[C@@H](CCCNC(=N)N)C(=O)N[C@@H](CCCNC(=N)N)C(N)=O)[C@@H](C)CC` [TP4] (H-FIHHIIGGLFSAGKAIHRLIRRRRR-NH2), the MIC [1] was 1.5 to 3 µg/mL, the “acute oral toxicity, clinical signs and vital organs” value [2] was “did not exhibit any abnormal clinical signs” and the “sub-acute oral toxicity, clinical signs” value [3] was “did not induce clinical complications in mice”. For the same compound, the “skin appearance, lesions” value ([4]; 48 hr post-exposure, after residue removal, 125 mg/kg TP4 or 20% SDS, n=12 per group) was “No obvious lesions”, the “dermal toxicity, mortality or damaging effects” value ([4]; topical, 10 times the effective dose, 14-day observation) was “did not result in mortality or damaging effects” and the Abnormality iris grade ([5]; Day 1) was 0. For the same compound, the Chemosis grade ([5]; Day 1) was 0, the “Conjunctivae Redness grade” value ([5]; Day 1) was 0 and the Corneal opacity grade ([5]; Day 1, rabbit eye, daily for 7 days (TP4 1 mg/kg; SDS 0.1%)) was 0. For the same compound, the Abnormality iris grade ([5]; Day 3) was 0, the Chemosis grade ([5]; Day 3) was 0.1 and the “Conjunctivae Redness grade” value ([5]; Day 3) was 0. The Corneal opacity grade ([5]; Day 3) was 0, the Abnormality iris grade ([5]; Day 5) was 0 and the Chemosis grade ([5]; Day 5) was 0.1. For the same compound, the “Conjunctivae Redness grade” value ([5]; Day 5) was 0.5, the Corneal opacity grade ([5]; Day 5) was 0.1 and the Abnormality iris grade ([5]; Day 7) was 0. For the same compound, the Chemosis grade ([5]; Day 7) was 0.1, the “Conjunctivae Redness grade” value ([5]; Day 7) was 0 and the Corneal opacity grade ([5]; Day 7) was 0.3. For the same compound, the Abnormality iris grade ([5]; Recovery, Day 14) was 0, the Chemosis grade ([5]; Recovery, Day 14) was 0 and the “Conjunctivae Redness grade” value ([5]; Recovery, Day 14) was 0. The Corneal opacity grade ([5]; Recovery, Day 14) was 0, the ocular appearance ([5]; rabbits treated for 7 days, observed daily) was “no ocular lesions were detected” and the hemolytic activity [6] was “low hemolytic activity”. For the same compound, the “toxicity against cell lines” value [7] was “low toxicity against human and mouse cell lines”.
